The conditions of series [1]: in water at 20-25° C., cited from earlier work; for CMC Value (% w/v): cells printed without %.
For series [2], the system named is anti-MUC16 monoclonal antibody. Nature of the series: Shaking-induced aggregation (150 rpm), percent monomer by size-exclusion chromatography. In kind it is physicochemical. The settings on record: surfactant at one half of its CMC; shaking 150 rpm, 37° C., 64 hours; FIG. 1. On the procedure:
In this set of studies, a buffered solution (20 mM sodium phosphate buffer, pH 7.4) of monoclonal antibody was subjected to shaking on an orbital shaker at 150 rpm, at a controlled temperature of 37° C. These studies were carried out using a 3 ml solution fill of the antibody solution in a 6 cc glass vial. Samples were withdrawn at regular intervals and analyzed for percent monomer using size-exclusion chromatography. Various surfactants of the class of alkylglycosides were evaluated for their effectiveness to prevent protein aggregation during shaking. The surfactants were used at concentrations below their respective critical micelle concentration (CMC) or above their respective CMC.
The surfactants were employed at one half the concentration of their respective CMC values, i.e., 1.1 mM (0.035% w/v) n-decyl-β-D-glucopyranoside, 9 mM (0.24%) n-octyl-β-D-glucopyranoside and 0.04 mM (0.0035%) polysorbate 20.

Series [3] concerns anti-CD11a monoclonal antibody. Nature of the series: Oxidation of Met256 on storage in surfactant-containing antibody solution. The settings on record: 0.1% w/v surfactant, pH 6.0, stored at 5° C. or 40° C. for 2 or 4 weeks; FIG. 15. In kind it is physicochemical. On the procedure: In a second experiment, oxidation of the Met256 amino acid residue in an anti-CD11a monoclonal antibody in solutions containing either n-decyl-β-D-glucopyranoside, n-octyl-β-D-glucopyranoside, or polysorbate 20 was evaluated. For this purpose, 3 ml of the buffered antibody solution (pH 6.0) containing 0.1% w/v of the surfactant was stored in 6 cc vials at either 5° C. or 40° C. for a period of either 2 or 4 weeks.

The subject of series [4] is Humanized anti-oxidized LDL monoclonal antibody. Nature of the series: Light-induced oxidation of tryptophan residues (LC/MS/MS tryptic peptide map). In kind it is physicochemical. The settings on record: Light 24 hrs. On the procedure: MAb samples and light treatment: Humanized anti-oxidized LDL monoclonal antibody, was produced at Genentech, Inc. from a CHO cell line. Three independent samples were prepared for photostability studies: 1) control sample, vial wrapped with aluminum foil; 2) test sample, vial light exposed (unwrapped); 3) test sample, vial light exposed (unwrapped) containing the specified non-ionic surfactant. Both control & light exposed samples were kept in a light box for 24 hrs. Light exposure following ICH guideline with following setting for a Atlas SUNTEST CPS+Light Box: Irradiance level=250 watts/square meter; Time set for 24 hours; Total UV dose=538 watt-hours/square meter; Total visible dose=1,320,000 lux-hours.
LC/MS/MS of tryptic MAb peptide map: Samples were digested with trypsin after reduction and alkylation. The resulting peptides were analyzed with a Thermo LTQ-Orbitrap mass spectrometer coupled with an Agilent 1200 capillary HPLC system. HPLC column: Jupiter 5 um C18 250×1.0 mm, flow rate: 70 uL/min, column oven temperature: 55° C. Solvent A: 0.1% TFA in water, B: 0.09% TFA in 90% ACN. Orbitrap setting: MS resolution 60000, MS/MS collected in data dependent mode, using LTQ.
The effect of light, and the protective effect of non-ionic surfactants, on the oxidation of tryptophan residues on an anti-oxidized LDL antibody was determined.

Data on 17 molecules can be found in patent publication US11938189B2, “Compositions and methods for stabilizing protein-containing formulations” (Genentech, Inc., priority 2010, dated 2024).

The structures appear in SMILES notation.

With `OC[C@H]1O[C@H](O[C@H]2[C@H](O)[C@@H](O)[C@H](OCCC3CCCCC3)O[C@@H]2CO)[C@H](O)[C@@H](O)[C@@H]1O` [2-cyclohexyl-ethyl-β-D-maltoside], in series [1], the “CMC Value” is 120 mM and the “CMC Value (w/v)” value is 5.4% w/v.

As to `CC(CCO[C@@H]1O[C@H](CO)[C@@H](O)[C@H](O)[C@H]1O)C1CCCCC1` (stereo partly drawn) [3-cyclohexyl-1-butyl-β-D-glucoside], in series [1], the “CMC Value” was 1.8 mM and the “CMC Value (w/v)” value is 0.058% w/v.

Take `OC[C@H]1O[C@@H](OCCCC2CCCCC2)[C@H](O)[C@@H](O)[C@@H]1O` [3-cyclohexyl-1-propyl-β-D-glucoside]: in series [1], the “CMC Value” is on record as 28 mM and the “CMC Value (w/v)” value is 0.86% w/v.

As to `OC[C@H]1O[C@H](O[C@H]2[C@H](O)[C@@H](O)[C@H](OCCCC3CCCCC3)O[C@@H]2CO)[C@H](O)[C@@H](O)[C@@H]1O` [3-cyclohexyl-propyl-β-D-maltoside], in series [1], the “CMC Value” is given as 34.5 mM and the “CMC Value (w/v)” value is 1.6% w/v.

As for `OC[C@H]1O[C@H](O[C@H]2[C@H](O)[C@@H](O)[C@H](OCCCCC3CCCCC3)O[C@@H]2CO)[C@H](O)[C@@H](O)[C@@H]1O` [4-cyclohexyl-butyl-β-D-maltoside], in series [1], the “CMC Value” is given as 7.6 mM and the “CMC Value (w/v)” value is given as 0.37% w/v.

On to `OC[C@H]1O[C@H](O[C@H]2[C@H](O)[C@@H](O)[C@H](OCCCCCC3CCCCC3)O[C@@H]2CO)[C@H](O)[C@@H](O)[C@@H]1O` [5-cyclohexyl-pentyl-β-D-maltoside], for which, in series [1], the “CMC Value” is 2.4 mM and the “CMC Value (w/v)” value was 0.12% w/v.

Regarding `OC[C@H]1O[C@H](O[C@H]2[C@H](O)[C@@H](O)[C@H](OCC3CCCCC3)O[C@@H]2CO)[C@H](O)[C@@H](O)[C@@H]1O` [cyclohexyl-methyl-β-D-maltoside], in series [1], the “CMC Value” is recorded as 340 mM and the “CMC Value (w/v)” value is 15% w/v.

On to `CCCCCCCCCCO[C@@H]1O[C@H](CO)[C@@H](O)[C@H](O)[C@H]1O` [n-decyl-β-D-glucopyranoside], for which, in series [2], the “prevention of shaking-induced loss of percent monomer” value is recorded as “effective in preventing loss of monomer”. In addition, in series [3], the “increase in percent oxidized Met256 vs initial sample” value is “no significant increase”. In series [1], the “CMC Value” is on record as 2.2 mM and the “CMC Value (w/v)” value is 0.07% w/v.

With `CCCCCCCCCCO[C@@H]1O[C@H](CO)[C@@H](O[C@H]2O[C@H](CO)[C@@H](O)[C@H](O)[C@H]2O)[C@H](O)[C@H]1O` [n-decyl-β-D-maltopyranoside], in series [1], the “CMC Value” is listed as 1.8 mM and the “CMC Value (w/v)” value was 0.087% w/v.

Turning to `CCCCCCCCCCCCO[C@@H]1O[C@H](CO)[C@@H](O)[C@H](O)[C@H]1O` [n-dodecyl-β-D-glucopyranoside, reference compound], in series [4] (0.03 mM surfactant), the “% Oxidized Trp33” value is given as 0.4% and the “% Oxidized Trp92” value is reported as 8.9%. In series [1], the CMC Value (% w/v) was 0.0066 % w/v and the “CMC Value” is listed as 0.19 mM.

Regarding `CCCCCCCCCCCCO[C@@H]1O[C@H](CO)[C@@H](O[C@H]2O[C@H](CO)[C@@H](O)[C@H](O)[C@H]2O)[C@H](O)[C@H]1O` [n-dodecyl-β-D-maltopyranoside, reference compound], in series [4] (0.03 mM surfactant), the “% Oxidized Trp33” value stood at 0.0% and the “% Oxidized Trp92” value worked out at 10.6%. For the same molecule, in series [4] (0.39 mM surfactant), the “% Oxidized Trp33” value is 0.1% and the “% Oxidized Trp92” value is 2.7%. Besides, in series [1], the CMC Value (% w/v) was 0.0087 % w/v and the “CMC Value” was 0.17 mM.

`CCCCCCCO[C@@H]1O[C@H](CO)[C@@H](O)[C@H](O)[C@H]1O` [n-heptyl-β-D-glucopyranoside]: in series [1], the “CMC Value” is 70 mM and the “CMC Value (w/v)” value is 1.9% w/v.

For `CCCCCCO[C@@H]1O[C@H](CO)[C@@H](O)[C@H](O)[C@H]1O` [n-hexyl-β-D-glucopyranoside], in series [4] (0.39 mM surfactant), the “% Oxidized Trp33” value is reported as 0.3% and the “% Oxidized Trp92” value is 4.9%. Besides, in series [4] (300 mM surfactant), the “% Oxidized Trp33” value was 0.0% and the “% Oxidized Trp92” value came to 1.6%. For the same molecule, in series [1], the “CMC Value” was 250 mM and the “CMC Value (w/v)” value was 6.6% w/v.

Regarding `CCCCCCO[C@@H]1O[C@H](CO)[C@@H](O[C@H]2O[C@H](CO)[C@@H](O)[C@H](O)[C@H]2O)[C@H](O)[C@H]1O` [n-hexyl-β-D-maltopyranoside], in series [4] (0.39 mM surfactant), the “% Oxidized Trp33” value was determined as 0.3% and the “% Oxidized Trp92” value is reported as 5.7%. Further, in series [4] (300 mM surfactant), the “% Oxidized Trp33” value came to 0.0% and the “% Oxidized Trp92” value is 2.2%. Further, in series [1], the “CMC Value” is on record as 210 mM and the “CMC Value (w/v)” value is 8.9% w/v.

In the case of `CCCCCCCCCO[C@@H]1O[C@H](CO)[C@@H](O)[C@H](O)[C@H]1O` [n-nonyl-β-D-glucopyranoside], in series [1], the “CMC Value” is on record as 6.5 mM and the “CMC Value (w/v)” value is given as 0.2% w/v.

On to `CCCCCCCCCO[C@@H]1O[C@H](CO)[C@@H](O[C@H]2O[C@H](CO)[C@@H](O)[C@H](O)[C@H]2O)[C@H](O)[C@H]1O` [n-nonyl-β-D-maltopyranoside], for which, in series [1], the “CMC Value” was 6 mM and the “CMC Value (w/v)” value was 0.28% w/v.

Turning to `CCCCCCCCO[C@@H]1O[C@H](CO)[C@@H](O[C@H]2O[C@H](CO)[C@@H](O)[C@H](O)[C@H]2O)[C@H](O)[C@H]1O` [n-octyl-β-D-maltopyranoside], in series [1], the “CMC Value” is on record as 19.5 mM and the “CMC Value (w/v)” value is 0.89% w/v.
